For one assay, the system named is Vero-E6 cells. The experiment in a line: cells.
Conditions: not given
The assay is classed as cell-based.
The molecule Ac-PHSCN-NH2 [SPE_K00521308] registered a PL_Result of -0.965.

The same assay, now with this note: Chlorocebus sabaeus, Vero C1008, 24 h, read-out: PL_Result.
As to `CC(=O)OCC(=O)[C@@]1(O)CC[C@H]2[C@@H]3CCC4=CC(=O)C=C[C@]4(C)[C@@]3(F)[C@@H](O)C[C@@]21C` [SPE_K29173907], the activation at 10 µM is -3.84%.

As to `COc1ccc(CCN(C)CCCN2CCc3cc(OC)c(OC)cc3CC2=O)cc1OC` [SPE_K92446736], the activation at 10 µM was -9.23%.

For the molecule `CCOC(=O)C1=C[C@]2(CC)CCCN3CCc4c(n1c1ccccc41)[C@@H]32` [SPE_K53318339], the activation at 10 µM was -10.5%.

For `CCC[C@H](N[C@@H](C)C(=O)N1[C@H](C(=O)O)C[C@@H]2CCCC[C@@H]21)C(=O)O` [SPE_K00768353], the activation at 10 µM was -9.94%.

As for `Cn1nc(-c2ccc(C(F)(F)F)cc2)nc2c(=O)n(C)c(=O)nc1-2` [SPE_K01129913], the activation at 10 µM was -6.15%.

On to `CCCNC(=O)Nc1ccc(Oc2ncnc3cc(OC)c(OC)cc23)cc1Cl` [SPE_K90993449], for which the activation at 10 µM was -9.86%.

Take `CN1C(CSCC(F)(F)F)Nc2cc(Cl)c(S(N)(=O)=O)cc2S1(=O)=O` (stereo not drawn) [SPE_A15739803]: the activation at 10 µM was 0.385%.

`COc1ccc(-c2coc3cc(O)cc(O)c3c2=O)cc1` [SPE_K73303757]: the activation at 10 µM is -15.6%.

Take `CC(C)=CCC[C@](C)(O)[C@H]1CC[C@]2(C)[C@@H]1[C@H](O)C[C@@H]1[C@@]3(C)CC[C@H](O)C(C)(C)[C@@H]3CC[C@]12C` [SPE_K60005752]: the activation at 10 µM was -8.61%.

Take `O=C(Cn1c(=O)sc2ccc(Cl)cc21)N1CCN(CCO)CC1` [SPE_K27293958]: the activation at 10 µM worked out at 2.56%.

Take `Clc1ccc(C(Cn2ccnc2)OCc2c(Cl)cccc2Cl)c(Cl)c1` (stereo not drawn) [SPE_A93353767]: the activation at 10 µM amounted to 0.354%.

`O=C(O)[C@@H]1C[C@@H](O)CN1` [SPE_A12454076]: the activation at 10 µM was -8.44%.

Regarding `CC(C)N(CCC(C(N)=O)(c1ccccc1)c1ccccn1)C(C)C` (stereo not drawn) [SPE_A29734509], the activation at 10 µM came to 1.87%.

`CNc1ncc2cc(-c3cc(NC(=O)NCCC(C)(C)C)c(F)cc3C)c(C)nc2n1` [SPE_K38385169]: the activation at 10 µM is -2.79%.

With `O=C(c1ccc(CN2CCOCC2)cc1)N1CCN(C2CC2)CC1` [SPE_K79595931], the activation at 10 µM was -2.77%.

Turning to `C=CC(C)(O)CCC=C(C)C` (stereo not drawn) [SPE_A43082461], the activation at 10 µM was -7.7%.

Regarding `CN1CC[C@@H](c2c(O)cc(O)c3c(=O)cc(-c4ccccc4Cl)oc23)[C@@H]1CO` [SPE_K51791723], the activation at 10 µM was 1.15%.

In the case of `CC(=O)OCC(=O)[C@@]1(O)CCC2C3CCC4=CC(=O)CC[C@]4(C)C3[C@@H](O)C[C@@]21C` (stereo partly drawn) [SPE_A65767837], the activation at 10 µM is -13.7%.

With `COc1ccc(CC2NCCc3cc(OC)c(OC)cc32)cc1OC` (stereo not drawn) [SPE_A91831168], the activation at 10 µM is -15.9%.

On to `O=C(Oc1ccccc1C(=O)O)c1ccccc1O` [SPE_K48892307], for which the activation at 10 µM was -11.6%.

With `CCN1C(=O)CN=C2NC=C(c3ccc(-c4nnc[nH]4)nc3C)N=C21` [SPE_K16755045], the activation at 10 µM was found to be 5.12%.

With `CC[C@@H]([C@H](C)O)n1ncn(-c2ccc(N3CCN(c4ccc(OC[C@@H]5CO[C@@](Cn6cncn6)(c6ccc(F)cc6F)C5)cc4)CC3)cc2)c1=O` [SPE_K06222852], the activation at 10 µM was -4.55%.

In the case of `Oc1c(I)cc(Cl)c2cccnc12` [SPE_K09255212], the activation at 10 µM came out at 3.03%.

Turning to `Cc1c(-c2ccnn2C)cc(C(=O)NCc2ccc(S(C)(=O)=O)cn2)c(=O)n1-c1cccc(C(F)(F)F)c1` [SPE_K31476763], the activation at 10 µM is -9.37%.

Turning to `C[C@@H](NC(=O)c1ncnc(N)c1Cl)c1ncc(C(=O)Nc2cc(C(F)(F)F)c(Cl)cn2)s1` [SPE_K43410529], the activation at 10 µM is -2.41%.

As for `CC(CNS(=O)(=O)C(C)C)c1ccc(-c2ccc(C#N)cc2)cc1` (stereo not drawn) [SPE_A50062753], the activation at 10 µM was -2.67%.

Consider `Cn1cc(-c2ccc(F)c(C(F)(F)F)c2)nc1C1CCN(c2ncnc3[nH]ncc23)CC1` [SPE_K21833260], for which the activation at 10 µM is -1.12%.

For `CC(C)(C)NC[C@H](O)c1ccc(O)c(CO)c1` [SPE_K34469523], the activation at 10 µM is -6.61%.

For `C=CCC1(CC(C)C)C(=O)NC(=O)NC1=O` [SPE_K71350836], the activation at 10 µM is -15.8%.

In the case of `CCN(CC)CCOC(=O)C(c1ccccc1)C1CCCCC1` (stereo not drawn) [SPE_A22267103], the activation at 10 µM was found to be 53.9%.

For the molecule `Cc1ccc(-c2nc3ccc(C)cn3c2CC(=O)N(C)C)cc1` [SPE_K44876623], the activation at 10 µM is -2.13%.

For the molecule `COCCN1CCC(C(=O)NO)(S(=O)(=O)c2ccc(Oc3ccc(OC(F)(F)F)cc3)cc2)CC1` [SPE_K51102532], the activation at 10 µM was -13.6%.

Regarding `Cc1c(NC(=O)c2cccnc2)c(=O)n(-c2ccccc2)n1C` [SPE_K47407372], the activation at 10 µM is -10.1%.

In the case of `CCOc1cccc(NC(=O)c2ccc(N3CCCC3)c(C(F)(F)F)c2)c1` [SPE_K42536037], the activation at 10 µM was -13.1%.

`c1ccc(CNCc2ccc(CN3CCCNCCNCCCNCC3)cc2)nc1` [SPE_K03019184]: the activation at 10 µM was -0.191%.

As to `CN1C(=O)OC(C)(C)C1=O` [SPE_K16606819], the activation at 10 µM is -11.7%.

As for `C=C[C@@H]1C[C@]1(NC(=O)[C@@H]1C[C@@H](Oc2ncc(OC)c3ccc(Cl)cc23)CN1C(=O)[C@@H](NC(=O)OC(C)(C)C)C(C)(C)C)C(=O)NS(=O)(=O)C1CC1` [SPE_K87028197], the activation at 10 µM is -0.0254%.

Turning to `S=c1[nH]cnc2nc[nH]c12` [SPE_K91601245], the activation at 10 µM is -8.41%.

Consider `O=C(Nc1ccc(N2CCC(C(=O)N3CCOCC3)CC2)cc1)c1cnc(Oc2ccccc2)nc1` [SPE_K57708067], for which the activation at 10 µM is -4.61%.

Turning to `CC(C)(C)c1ccc(NC(=O)N2CCN(c3ncccc3Cl)CC2)cc1` [SPE_K66541497], the activation at 10 µM was -7.73%.

As for `CN1CCN(CCc2ccc(Cl)c(Cl)c2)CC1` [SPE_K29668683], the activation at 10 µM amounted to 11.7%.

On to `CC(C)[C@H](CO)Nc1nc(Nc2ccc(C(=O)O)c(Cl)c2)c2ncn(C(C)C)c2n1` [SPE_K41564320], for which the activation at 10 µM is 1.13%.

`Cc1cc(C)c2nc(-c3ccccn3)cc(C(=O)Nc3ccc(S(=O)(=O)Nc4onc(C)c4C)cc3)c2c1` [SPE_K27539181]: the activation at 10 µM was found to be 7.09%.

Turning to `Cc1cc(-c2nncc3c(C(C)(C)C)c(OCc4ncnn4C)nn23)no1` [SPE_K44022883], the activation at 10 µM is -4.38%.

Turning to `Cc1ccc(N2CCN(CCC3NC(=O)c4ccccc43)CC2)cc1C` (stereo not drawn) [SPE_A82013137], the activation at 10 µM was -6.23%.

In the case of `CCn1ccnc1CC1COc2ccccc2O1` (stereo not drawn) [SPE_A10903566], the activation at 10 µM was determined as 2.21%.

Turning to `COc1cc(N)c(Cl)cc1C(=O)OCCN1CCCCC1` [SPE_K69343602], the activation at 10 µM is -4.29%.

Regarding `CN(C)c1nc(N)c(C(=O)Nc2cccnc2)nc1Cl` [SPE_K68633617], the activation at 10 µM was -11.7%.

Consider `C#C[C@]1(O)CC[C@H]2[C@@H]3CCC4=CC(=O)CCC4=C3C=C[C@@]21CC` [SPE_K97472745], for which the activation at 10 µM was -10.6%.

`c1ccc(C(O[C@@H]2CCCN(CCc3ccc4c(c3)OCO4)C2)c2ccccc2)cc1` [SPE_K80451230]: the activation at 10 µM came to 13%.

In the case of `N#Cc1cccc(-c2nc(-c3cccnc3)no2)c1` [SPE_K40176866], the activation at 10 µM is -7.54%.

For the molecule `CCOC(=O)n1ccn(C)c1=S` [SPE_K87156652], the activation at 10 µM is -10.8%.

`CC(=O)OCC(=O)NCCCOc1cccc(CN2CCCCC2)c1` [SPE_K81855038]: the activation at 10 µM was -10.7%.

For `COc1ccn2ncc(-c3nc4[nH]nc(NC(=O)c5ccc(F)cc5)c4cc3F)c2c1` [SPE_K84068331], the activation at 10 µM was -16.5%.

In the case of `Cc1[nH]cnc1CN1CCc2c(c3ccccc3n2C)C1=O` [SPE_K46742498], the activation at 10 µM amounted to 6.83%.

Consider `NC1CCN(c2cccnc2)C1` (stereo not drawn) [SPE_A29844814], for which the activation at 10 µM is -9.03%.

`NCC(=O)Nc1ccc(-n2nc(C(F)(F)F)cc2-c2ccc3c(ccc4ccccc43)c2)cc1` [SPE_K90497590]: the activation at 10 µM was -14.6%.

For the molecule `Cn1cc(-c2cc(Oc3cc(F)c(NC(=O)C4(C(=O)Nc5ccccc5)CC4)cc3F)ccn2)cn1` [SPE_K49246350], the activation at 10 µM was -0.953%.

With `COc1cccc(NC(=O)/C=C/c2ccc(Cl)cc2)c1` [SPE_K61536336], the activation at 10 µM is -7.48%.

For `CN1C(=O)N(c2cc(Cl)cc(Cl)c2)C(=O)[C@]12CN(Cc1cc(C(=O)O)cs1)C[C@H]2c1ccc(C#N)cc1` [SPE_K20093108], the activation at 10 µM was -2.08%.

With `CC(=O)Nc1ccc(S(=O)(=O)Nc2ccc([N+](=O)[O-])cc2)cc1` [SPE_K76845197], the activation at 10 µM is -3.76%.

Take `OC[C@H]1O[C@H](O)C[C@@H](O)[C@@H]1O` [SPE_K97808269]: the activation at 10 µM is -3.49%.

Consider `Nc1nc(Nc2ccc(S(N)(=O)=O)cc2)nn1C(=O)c1c(F)cccc1F` [SPE_K11636097], for which the activation at 10 µM is -9.77%.

For `COc1ccc2[nH]c3nnc(C)c-3c(NCCOCCO)c2c1` [SPE_K02460719], the activation at 10 µM is -9.99%.

Regarding `CC(CN(C)C)C(C)(O)Cc1ccc(Cl)cc1` (stereo not drawn) [SPE_A43809092], the activation at 10 µM is -8.69%.

In the case of `CC#CC(=O)N1CCC[C@H]1c1nc(-c2ccc(C(=O)Nc3ccccn3)cc2)c2c(N)nccn12` [SPE_K64034691], the activation at 10 µM is -12.3%.

As to `O=C(O)C1CN(CCCP(=O)(O)O)CCN1` (stereo not drawn) [SPE_A60832661], the activation at 10 µM is -0.285%.

Consider `CCc1ccc(CCOc2ccc(CC3SC(=O)NC3=O)cc2)nc1` (stereo not drawn) [SPE_A48430263], for which the activation at 10 µM was -1.25%.

In the case of `Cc1cc(N2CCCCC2)nc2ccccc12` [SPE_K80021413], the activation at 10 µM was -1.3%.

As to `NC(Cc1c[nH]c2ccc(O)cc12)C(=O)O` (stereo not drawn) [SPE_A73930134], the activation at 10 µM was -6.97%.

As for `CC(C)(C)NCC(O)c1ccccc1Cl` (stereo not drawn) [SPE_A37441042], the activation at 10 µM came out at 4.82%.

Take `O=C(Nc1ccc(S(=O)(=O)C(F)(F)F)cc1)C1=CCN(c2ncccc2C(F)(F)F)CC1` [SPE_K87665527]: the activation at 10 µM is 1.59%.

For `COc1cc2c(cc1OC)-c1cc3ccc(OC)c(OC)c3c[n+]1CC2` [SPE_K58466253], the activation at 10 µM stood at 0.986%.

With `Cc1nc(N)sc1-c1ccnc(Nc2ccc(N3CCOCC3)cc2)n1` [SPE_K64866502], the activation at 10 µM was -7.46%.

These data come from PMC13083723 (Patterns, 2026).
